The values that follow come from patent US20180280329A1, “INHIBITORS OF PLASMINOGEN FOR TREATING, REDUCING OR PREVENTING RADIATION-INDUCED INJURIES” (OMNIO AB, priority 2015, published 2018).

One experiment addresses T1, plasminogen (Mus musculus, UniProt P20918).
T1 construct: Burn wounds were introduced to three WT mice and TXA (800 mg/kg) was injected three times at 8 h intervals; from tissue; host or cells: skin of wild-type mice (burn wound), in vivo
The experiment can be described thus: Burn wound model: plasminogen accumulation in wound skin extracts (ELISA). Format: in vivo. As to conditions: WT mice, TXA 800 mg/kg injected three times at 8 h intervals, skin at 24 h after wounding, compared to mice treated with PBS. On the procedure:
Dorsal skin samples from irradiated and not-irradiated control mice were homogenized in a lysis buffer (50 mM Tris-HCl buffer pH 8.0 with 120 mM NaCl, 1 mM EDTA, 6 mM EGTA, 1% NP-40 and 1 mM DTT) supplemented with PhosSTOP phosphatase inhibitors and Complete Ultra mini protease inhibitor cocktail tablets (both from Roche, Basel, Switzerland). The skin extracts were then kept at −20° C. until use. Total protein concentration in the extracts was quantified using Pierce BCA protein assay kit, according to the manufactural instruction (ThermoFisher Scientific, Waltham, U.S.A). Mouse IL-6 and TNF-alpha levels in the extracts were measured using specific ELISA kits from eBioscience (San Diego, U.S.A). Mouse plasminogen was quantified with a mouse plasminogen-specific ELISA (Omnio AB, Umeå, Sweden).
Mice were anesthetized with Dormicum/Hypnorm and burn wounds were made with a brass stave as described previously (Shen et al. 2012, Blood 119:5879). The mice were given a single injection of Temgesic (Schering-Plough, Brussels, Belgium) the day after burning. All mice were individually caged, and wounds were neither sutured nor dressed.
Initially, the burn wound model (Shen et al. 2012, Blood 119:5879) was used to test whether TXA has an effect on plasminogen accumulation in the wound. […]

The subject of experiment [1] is radiation-induced dermatitis. The experiment in a line: Radiation-induced dermatitis model (15 Gy to dorsal skin), radio-dermatitis documented by photos and scored. Format: in vivo, mouse. The following applies: for development and severity of radio-dermatitis: irradiated WT mice. On the procedure: Dorsal skin of mice had been shaved 3 days prior to irradiation. For the irradiation, the mice were anesthetized by intraperitoneal injection of 150 μl mixture containing Ketaminol vet. (Intervet AB, Sollentuna, Sweden) and Dormitor vet. (Orion Pharma AB, Espoo, Finland). Mice were laid into a lead box to protect the whole body from irradiation, while the dorsal skin was gently stretched out through a 4 cm-long gap in the bottom of the box and maintained with medical tape. Irradiation box with a mouse was then placed in Gammacell 40 exactor (Ashford, UK) that has two Caesium-137 sources. Irradiation was given as a single dose of 1 Gy per minute over 15 min (total dose 15 Gy).
Digital photographs of the dorsal skin were taken on the specified days after irradiation. The wound size was quantified using Image J (National Institute of Mental Health, Bethesda, Md.). Severity of radio-dermatitis was scored, with the scores defined as: 0=normal, 1=erythema, 2=desquamation, 3=ulcer.
WT and plg^+/− were intraperitoneally injected with 800 mg/kg of TXA in PBS three times per day. The injections started 2 days before the irradiation and continued for 15 days after the irradiation. Development of dermatitis was documented by digital photos and skin samples were analyzed as described in Example 2.
(§1) In this experiment, mice were treated as in Example 3, with the exception that TXA was given in drinking water in dose 700 mg/kg/day. Real-time PCR was performed as described in Example 3.

The next experiment relates to IL-1β. The experiment in a line: Quantitative RT-PCR of irradiated skin: IL-1β mRNA. The following applies: irradiated WT mice, TXA in drinking water, day 9 after irradiation. Format: in vivo, mouse. The protocol: (§2) Skin samples were homogenized in TRIzol (Ambion) using Precellys CK28R tubes on a Precellys 24 homogenizer (both from Bertin Technologies, France) according to the manufacturer's instructions. Total RNA was extracted with PureLink RNA Mini Kit (Ambion) according to the manufacturer's instruction. 2.5 μg of total RNA was reverse transcribed using Superscript VILO cDNA synthesis kit (Invitrogen) and diluted 3 fold with DEPC-water. Expression of genes were analyzed using quantitative real-time PCR with Comparative CT method and with TBP mRNA as the internal reference gene. The gene-specific primers and probes (TaqMan Gene Expression Assays) were from Applied Biosytems, and 2× SsoAdvanced Universal Probes Supermix was from BIO-RAD. Each sample was run in triplicate on StepOnePlus Instrument (Applied Biosystems) using real-time PCR cycling conditions for 2× SsoAdvanced Universal Probes Supermix.
as §1

In a further experiment the test system is IL-6. The experiment can be described thus: Quantitative RT-PCR of irradiated skin: IL-6 mRNA. Format: in vivo, mouse. As to conditions: irradiated WT mice, TXA in drinking water, day 9 after irradiation. The protocol: as §2, §1
The test system of the next experiment is TGF-β. The experiment can be described thus: Quantitative RT-PCR of irradiated skin: TGF-β mRNA. Type of experiment: in vivo, mouse. The following applies: irradiated WT mice, TXA in drinking water, day 9 after irradiation. The protocol:
as §2, §1

The next experiment has as its system PAI-1. The experiment in a line: Quantitative RT-PCR of irradiated skin: PAI-1 mRNA. Type of experiment: in vivo, mouse. The following applies: irradiated WT mice, TXA in drinking water, day 9 after irradiation. The protocol: as §2, §1

T1 sequence (P20918 20-812 limits assumed): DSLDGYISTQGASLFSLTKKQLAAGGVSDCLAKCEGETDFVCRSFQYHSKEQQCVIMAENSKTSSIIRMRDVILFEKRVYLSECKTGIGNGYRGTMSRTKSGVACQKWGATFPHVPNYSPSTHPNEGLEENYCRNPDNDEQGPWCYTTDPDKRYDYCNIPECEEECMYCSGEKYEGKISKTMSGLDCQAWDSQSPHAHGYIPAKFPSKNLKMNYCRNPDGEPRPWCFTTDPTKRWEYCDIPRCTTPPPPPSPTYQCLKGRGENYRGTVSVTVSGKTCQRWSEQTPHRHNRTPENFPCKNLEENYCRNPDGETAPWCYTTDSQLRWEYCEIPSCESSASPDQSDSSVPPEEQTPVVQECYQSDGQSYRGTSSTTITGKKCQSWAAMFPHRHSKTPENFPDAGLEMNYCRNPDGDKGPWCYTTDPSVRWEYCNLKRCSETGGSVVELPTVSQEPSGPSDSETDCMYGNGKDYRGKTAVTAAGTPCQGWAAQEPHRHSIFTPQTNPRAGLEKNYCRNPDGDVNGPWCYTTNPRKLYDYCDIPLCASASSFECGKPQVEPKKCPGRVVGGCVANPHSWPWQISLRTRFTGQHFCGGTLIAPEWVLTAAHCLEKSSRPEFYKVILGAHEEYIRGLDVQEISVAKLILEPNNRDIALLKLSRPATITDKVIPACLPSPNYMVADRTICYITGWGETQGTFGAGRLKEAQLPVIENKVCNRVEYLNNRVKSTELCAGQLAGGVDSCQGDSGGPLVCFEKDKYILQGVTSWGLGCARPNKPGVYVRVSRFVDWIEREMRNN

Turning to `NC[C@H]1CC[C@H](C(=O)O)CC1` [TXA, trans-4 (aminomethyl) cyclohexanecarboxylic acid], the “inhibition of plasminogen accumulation in wounds” value at plasminogen is 50%. Also, the “development and severity of radio-dermatitis” value was “delayed development of dermatitis and with a lower severity” in experiment [1] (TXA 800 mg/kg intraperitoneally three times per day, from 2 days before to 15 days after irradiation, vs carrier); “significant delay in development of radio-dermatitis and a lower severity of skin damage” in experiment [1] (TXA in drinking water 700 mg/kg/day, vs control WT mice treated with water only). The development of radio-dermatitis result in experiment [1] (irradiated plg+/- mice, TXA 800 mg/kg intraperitoneally three times per day, from 2 days before to 15 days after irradiation) is “completely blocked”. Moreover, in experiment [1] (irradiated plg+/- mice, TXA in drinking water 700 mg/kg/day), the formation of radiodermatitis entry is “totally inhibited formation of radiodermatitis”. Further, the “level of IL-1β expression in skin” value in the experiment on IL-1β was “very low”. Further, the “expression of IL-6 in skin” value in the experiment with IL-6 is “decreased expression”. Moreover, in the experiment with TGF-β, the “expression of TGF-β in skin” value is reported as “decreased expression”. Also, in the experiment with PAI-1, the “expression of PAI-1 in skin” value was “decreased expression”.
